According to publication PMC11597048, “M2e-Derived Peptidyl and Peptide Amphiphile Micelles as Novel Influenza Vaccines” (Pharmaceuticals, 2024):

What was measured:
[1] = Transmission electron microscopy of micelles; type: physicochemical; conditions: 20 μM peptide or PA with or without 2.22 μM Pam2CSK4 (90/10) in PBS, Nano-W negative stain
Method: Solutions of 20 μM peptide or PA with or without 2.22 μM Pam2CSK4 were prepared in PBS from which 5 μL was pipetted onto a carbon-coated copper transmission electron microscopy (TEM) grid and incubated for 3–5 min before excess solution was wicked away using filter paper. Then, 5 μL Nano-W (2% methylamine tungstate) was pipetted on the grid and incubated for 3–5 min before being removed by wicking. Grids were imaged using a JEOL JEM-1400 Transmission Electron Microscope (Tokyo, Japan) at 15,000× and 25,000× magnification. Micrographs of peptide or PA were compared against reference micrographs of Nano-W with or without PBS to ensure proper identification of micellar structures.

[2] = test system: bone marrow-derived dendritic cells (BMDCs); assay: BMDC cytokine secretion (sandwich ELISA of supernatant); type: cell-based, BALB/c mice; conditions: 24 h treatment, 0.2 μM Pam2CSK4, supernatant ELISA
Method: Bone marrow was harvested from the femurs and tibias of 4-month-old BALB/c mice and red blood cells were lysed using ammonium-chloride-potassium (ACK) lysing buffer. Bone marrow cells were cultured in complete RPMI media (i.e., 10% FBS, 100 U/mL penicillin, 100 μg/mL streptomycin, and 50 μM β-mercaptoethanol) with 20 ng/mL granulocyte-macrophage colony-stimulating factor (GM-CSF) to promote differentiation into bone marrow-derived dendritic cells (BMDCs). After 10 days, BMDCs were plated in untreated 24-well plates and cultured with peptide or PA for 24 h. Supernatants were collected and stored at −20 °C for later use. BMDCs were harvested and processed for flow cytometry analysis. More specifically, cells were removed from the plate, blocked with Trustain FcX anti-mouse CD16/32 antibody (BioLegend), then stained with phycoerythrin-Cyaninine7 (PE-Cy7) anti-mouse CD11c (BioLegend), fluorescein isothiocyanate (FITC) anti-mouse CD40 (BioLegend), and allophycocyanin (APC) anti-mouse MHC II (BioLegend) before being fixed with 4% para-formaldehyde. Cells were analyzed on a BD LSR Fortessa Flow Cytometer (Franklin Lakes, NJ, USA) within 48 h after fixation. Events were gated according to the strategy shown in Figure S2, with viable samples having a “valid cells” gate of at least 45% of the total events. […]

## Pam2CSK4
[1]
  Micelle morphology (TEM): mostly small spherical micelles
[2]
  IL-12/IL-23 (p40) secretion: higher production
  TNF-α secretion: higher production
